Structures are written as SMILES.

Common to all, as to test: pull-down of COI1-flag on MBP-JAZ, immunoblot
What all share (type): binding
What all share (conditions): 0.5 μM COR; inducer of complex (agonist)
Background: In western blotting, separated proteins are transferred to a membrane and probed.

In assay [1] the target is T1, AtCOI1-flag/AtJAZ2-MBP with ASK1 (Arabidopsis thaliana, UniProt O04197+Q9S7M2).
T1 sequence (O04197 1-592): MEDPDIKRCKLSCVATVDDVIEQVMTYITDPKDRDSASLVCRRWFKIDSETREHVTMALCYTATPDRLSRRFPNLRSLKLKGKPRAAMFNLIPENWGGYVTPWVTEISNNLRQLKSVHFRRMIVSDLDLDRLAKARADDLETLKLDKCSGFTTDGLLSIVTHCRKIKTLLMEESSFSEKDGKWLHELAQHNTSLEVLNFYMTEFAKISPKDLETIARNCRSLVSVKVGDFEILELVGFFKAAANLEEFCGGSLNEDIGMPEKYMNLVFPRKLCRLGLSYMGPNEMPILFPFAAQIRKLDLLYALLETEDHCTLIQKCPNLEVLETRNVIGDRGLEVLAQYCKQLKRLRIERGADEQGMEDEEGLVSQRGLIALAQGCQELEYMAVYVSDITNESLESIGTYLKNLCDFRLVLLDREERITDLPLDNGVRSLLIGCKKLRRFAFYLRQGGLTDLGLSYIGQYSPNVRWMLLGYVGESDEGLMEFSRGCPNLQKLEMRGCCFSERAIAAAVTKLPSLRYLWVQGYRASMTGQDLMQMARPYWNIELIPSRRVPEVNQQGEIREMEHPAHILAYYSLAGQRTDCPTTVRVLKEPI
T1 sequence (Q9S7M2 1-249): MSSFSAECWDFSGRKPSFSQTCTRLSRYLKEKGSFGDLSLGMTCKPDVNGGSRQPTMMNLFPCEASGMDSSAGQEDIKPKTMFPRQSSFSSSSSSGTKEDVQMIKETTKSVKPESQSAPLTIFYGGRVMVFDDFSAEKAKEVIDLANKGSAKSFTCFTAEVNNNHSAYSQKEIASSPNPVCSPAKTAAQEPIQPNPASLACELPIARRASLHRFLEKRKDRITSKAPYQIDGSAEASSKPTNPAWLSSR
T1 sequence (Q39255 1-160 partner): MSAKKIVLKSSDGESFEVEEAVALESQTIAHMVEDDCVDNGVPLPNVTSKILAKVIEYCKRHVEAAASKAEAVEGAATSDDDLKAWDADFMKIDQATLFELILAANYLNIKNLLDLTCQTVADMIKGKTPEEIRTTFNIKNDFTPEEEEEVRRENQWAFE

The target in assay [2] is T2, AtCOI1-flag/AtJAZ1-MBP with ASK1 (Arabidopsis thaliana, UniProt O04197+Q9LMA8).
T2 sequence (O04197 1-592): T1 sequence (O04197 1-592)
T2 sequence (Q9LMA8 1-253): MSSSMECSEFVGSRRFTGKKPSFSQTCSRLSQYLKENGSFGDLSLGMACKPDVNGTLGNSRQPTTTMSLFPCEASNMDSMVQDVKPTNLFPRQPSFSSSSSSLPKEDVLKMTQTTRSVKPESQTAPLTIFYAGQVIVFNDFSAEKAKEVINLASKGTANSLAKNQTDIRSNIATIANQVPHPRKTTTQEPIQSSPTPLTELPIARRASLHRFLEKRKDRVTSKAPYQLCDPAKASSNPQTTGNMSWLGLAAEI
T2 sequence (Q39255 1-160 partner): T1 sequence (Q39255 1-160 partner)

Assay [3] deals with T3, AtCOI1-flag/AtJAZ3-MBP with ASK1 (Arabidopsis thaliana, UniProt O04197+Q9LVI4).
T3 sequence (O04197 1-592): T1 sequence (O04197 1-592)
T3 sequence (Q9LVI4 1-352): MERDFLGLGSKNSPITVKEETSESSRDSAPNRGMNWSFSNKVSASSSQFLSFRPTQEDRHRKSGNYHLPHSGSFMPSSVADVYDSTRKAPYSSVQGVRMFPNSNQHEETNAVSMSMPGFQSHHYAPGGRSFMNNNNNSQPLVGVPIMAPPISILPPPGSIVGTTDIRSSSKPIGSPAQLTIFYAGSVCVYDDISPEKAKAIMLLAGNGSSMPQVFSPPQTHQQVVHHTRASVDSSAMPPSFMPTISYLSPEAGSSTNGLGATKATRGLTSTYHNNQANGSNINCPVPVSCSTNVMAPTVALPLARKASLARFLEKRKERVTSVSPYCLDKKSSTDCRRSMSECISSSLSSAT
T3 sequence (Q39255 1-160 partner): T1 sequence (Q39255 1-160 partner)

Assay [4] concerns the target T4, AtCOI1-flag/AtJAZ9-MBP with ASK1 (Arabidopsis thaliana, UniProt O04197+Q8W4J8).
T4 sequence (O04197 1-592): T1 sequence (O04197 1-592)
T4 sequence (Q8W4J8 1-267): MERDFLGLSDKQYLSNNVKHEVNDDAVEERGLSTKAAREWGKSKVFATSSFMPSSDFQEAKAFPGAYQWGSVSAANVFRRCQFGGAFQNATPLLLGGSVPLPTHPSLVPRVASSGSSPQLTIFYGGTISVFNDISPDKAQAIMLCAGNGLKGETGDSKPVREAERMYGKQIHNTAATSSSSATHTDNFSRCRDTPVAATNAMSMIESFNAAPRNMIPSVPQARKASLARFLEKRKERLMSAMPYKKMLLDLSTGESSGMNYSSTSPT
T4 sequence (Q39255 1-160 partner): T1 sequence (Q39255 1-160 partner)

Consider `CC[C@H]1C=C(C(=O)N[C@@]2(C(=O)O)C[C@@H]2CC)[C@H]2CCC(=O)[C@H]2C1` [COR], for which the “pull-down of COI1-flag on MBP-JAZ, immunoblot” value in assay [1] is “COR promotes the interaction between the purified COI1 and several recombinant JAZ-MBP proteins”; in assay [2], “COR promotes the interaction between the purified COI1 and several recombinant JAZ-MBP proteins”; in assay [3] it was “COR promotes the interaction between the purified COI1 and several recombinant JAZ-MBP proteins”; in assay [4], “COR promotes the interaction between the purified COI1 and several recombinant JAZ-MBP proteins”.

Source of the values: publication PMC8566257 (Plant Physiology, 2021).
